This is an account of results in patent publication US10463688B2, “Nylon-3 polymers active against Clostridium difficile” (priority 2015, dated 2019).

The subject of series [1] is C. difficile spores (630Δerm strain). The experiment in a line: Viability of spores recovered from OIC assays (spore outplating), strain 630Δerm. Format: cell-based, Clostridium difficile. The following applies: CFU post-assay/initial CFU. Here is the method: Experiments were conducted to determine whether any spores fail to germinate under the conditions of the OIC measurement but remain viable for subsequent germination and outgrowth. Spores were incubated for 24 h in the presence of germinant (taurocholate) and one of the polymers or other agents at multiple concentrations above the OIC. These solutions were then diluted 10 to 100-fold into sterile PBS, and further diluted upon plating onto BHIS agar medium containing germinant to achieve concentrations below the OIC of the relevant antimicrobial agent. Spore survival was calculated as the percentage of colony-forming units retrieved on outgrowth plates relative to the initial spore inoculum (100%).
Samples were diluted and plated onto BHIS medium containing 0.1% taurocholate and enumerated following incubation for at least 24 h at 37° C. Spore survival was calculated as the percentage of CFU post-assay/initial CFU.

In series [2] the test system is C. difficile spores (R20291 strain). The settings on record: MH broth with taurocholate, 24 h at 37° C.
Series [3] deals with C. difficile spores (630Δerm strain). The following applies: 630Δerm spores; MH broth with taurocholate, 24 h at 37° C.
Series [4] relates to human red blood cells (hRBCs).
In series [5] the test system is C. difficile spores (R20291 strain). Briefly: Viability of spores recovered from OIC assays (spore outplating), strain R20291. The following applies: for R20291 Mean Spore Viability: CFU post-assay/initial CFU.
The test system is the same in series [6]. The experiment in a line: microbe, parasite or virus in culture. The settings on record: Clostridioides difficile, 24 h, read-out: OIC, minimum inhibition concentration for spore outgrowth.
Series [7] has as its system C. difficile spores (630Δerm strain). Briefly: microbe, parasite or virus in culture. The settings on record: Clostridioides difficile, 24 h, read-out: OIC, minimum inhibition concentration for spore outgrowth.
Setting [8] is: Clostridioides difficile, read-out: R20291 Mean Spore Viability.

The structures appear in SMILES notation. ≈ marks a conversion by molar mass, not a printed value. A value given as a limit tells only on which side of the number the result lay.

As for `CC[C@H](C)[C@H](NC(=O)[C@H](CCCCN)NC(=O)[C@H](CCC(=O)O)NC(=O)[C@H](CCCCN)NC(=O)[C@H](CO)NC(=O)[C@H](CCCCN)NC(=O)[C@H](CCCNC(=N)N)NC(=O)[C@H](Cc1ccccc1)NC(=O)[C@H](Cc1ccccc1)NC(=O)[C@H](CC(=O)O)NC(=O)CNC(=O)[C@H](CC(C)C)NC(=O)[C@@H](N)CC(C)C)C(=O)NCC(=O)N[C@@H](CCCCN)C(=O)N[C@@H](CCC(=O)O)C(=O)N[C@@H](Cc1ccccc1)C(=O)N[C@@H](CCCCN)C(=O)N[C@@H](CCCNC(=N)N)C(=O)N[C@H](C(=O)N[C@H](C(=O)N[C@@H](CCC(N)=O)C(=O)N[C@@H](CCCNC(=N)N)C(=O)N[C@H](C(=O)N[C@@H](CCCCN)C(=O)N[C@@H](CC(=O)O)C(=O)N[C@@H](Cc1ccccc1)C(=O)N[C@@H](CC(C)C)C(=O)N[C@@H](CCCNC(=N)N)C(=O)N[C@@H](CC(N)=O)C(=O)N[C@@H](CC(C)C)C(=O)N[C@H](C(=O)N1CCC[C@H]1C(=O)N[C@@H](CCCNC(=N)N)C(=O)N[C@H](C(=O)N[C@@H](CCC(=O)O)C(=O)N[C@@H](CO)C(=O)O)[C@@H](C)O)C(C)C)[C@@H](C)CC)C(C)C)[C@@H](C)CC` [LL-37], the “630ΔErm Mean Spore Viability” value in series [1] (concentration 20 μg/ml) is reported as 5.5% (±7.4%); in series [1] (concentration 40 μg/ml), 4.0% (±4.0%); in series [1] (concentration 80 μg/ml), 7.8% (±3.9%). Further, the “OIC, minimum inhibition concentration for spore outgrowth” value in series [2] stood at 5 µg/mL; in series [3], 10 µg/mL. Moreover, the “hemolytic activity (in words)” value in series [4] is on record as “significant hemolytic activity”. Moreover, the “R20291 Mean Spore Viability” value in series [5] (concentration 10 μg/ml) was 0.4% (±0.7%); in series [5] (concentration 20 μg/ml), 1.2% (±0.7%); in series [5] (concentration 40 μg/ml), 3.6% (±1.8%); in series [5] (concentration 80 μg/ml), 5.8% (±2.9%).
In the case of `CN[C@H](CC(C)C)C(=O)N[C@H]1C(=O)N[C@@H](CC(N)=O)C(=O)N[C@H]2C(=O)N[C@H]3C(=O)N[C@H](C(=O)N[C@H](C(=O)O)c4cc(O)cc(O)c4-c4cc3ccc4O)[C@H](O)c3ccc(c(Cl)c3)Oc3cc2cc(c3O[C@@H]2O[C@H](CO)[C@@H](O)[C@H](O)[C@H]2O[C@H]2C[C@](C)(N)[C@H](O)[C@H](C)O2)Oc2ccc(cc2Cl)[C@H]1O` [vancomycin], the MIC in series [6] amounted to 0.25 µg/mL (≈ 0.173 µM). The MIC in series [7] was above 32 µg/mL. In addition, in series [5] (setting [8]), the viability at 0.5 µg/mL is 21.1%, the viability at 1 µg/mL came to 7.7%, the viability at 2 µg/mL turned out to be 3.4% and the viability at 4 µg/mL came out at 1.3%. The viability at 8 µg/mL in series [5] (setting [8]) was 0.9%.

In general, viability refers to the share of living cells, or the viability signal relative to a control.
